Measurements reported in patent US20250122171A1, “Substituted Amine Compounds, Compositions and Methods of Use” (Deep Apple Therapeutics, Inc., priority 2023, published 2025).

Assays:
Assay type in all cases: cell-based
hERG channel = target: T1, hERG channel (Homo sapiens, UniProt Q12809); assay: hERG Safety Evaluation by Manual Patch-Clamp System; details: hERG-T-Rex 293 cells, whole cell patch-clamp at 35° C.
T1 construct: host or cells: hERG-T-Rex 293 (HEK 293), doxycycline-induced
Method: A stable BIEK 293 cell line with inducible hERG channel expression (hERG-T-Rex 293, Invitrogen cat #K1236) was cultured in medium containing 85% DMVEM, 10% dialyzed FBS, 0.1 mM NEAA, 25 mM HEPES, 100 U/mL Penicillin-Streptomycin, 5 μg/mL Blasticidin and 400 μg/mL Geneticin. Before the assay, cells were induced with doxycycline at 1 μg/mL for 48 hours. On the experiment day, the induced cells were resuspended and plated onto coverslips at 5×10^5 cells/per 3.5 cm cell culture dish prior to use and cultured in medium without Blasticidin and Geneticin.
Electrophysiology recordings were performed in extracellular solution (ECS) containing (in mM): 132 NaCl, 4 KCl, 3 CaCl2), 0.5 MgCl2, 11.1 D-(+) glucose, and 10 HEPES (pH adjusted to 7.35 with NaOH, osmolarity 285-295 mOsm). Recording pipets contained (in mM) 10 NaCl, 10 KCl, 110 KF, 10 EGTA, and 10 HEPES (pH adjusted to 7.2 with KOH, osmolarity 285-295 mOsm).
Test and positive control (dofetilide) compounds were solubilized in 100% DMSO at 10 mM or 75 mM, respectively. Intermediate dilutions of compounds were prepared by serial dilution in 100% DMSO, after which working solutions were prepared in ECS (final DMSO concentration=0.1-1% v/v for test compounds, and 0.1% for dofetilide). […]
Whole cell recordings of voltage-clamped cells were performed at 35° C., with all working solutions heated to 34° C. in a water bath before administration. Current recordings were collected at 20 kHz with a 10 kHz filter and were compensated for capacitance. Cells were clamped at −60 mV, and leak current was tested at −80 mV for 500 ms. The hERG current was elicited by depolarizing at +30 mV for 4.8 seconds and then the voltage was taken back to −50 mV for 5.2 seconds to remove the inactivation and observe the deactivating tail current. Recordings were continued for 120 seconds to assess current stability. Only stable cells with recording parameters above threshold were used in compound administration experiments. Vehicle control was applied to cells to establish baseline. […] For dose response testing, test compound was applied to the cells cumulatively from low to high concentrations. Dofetilide at concentration of 450 nM was also applied to each cell post-hERG current measurement at the highest concentration of test compound as the internal low control for normalization of percentage inhibition. Dofetilide (5 doses) response was performed as positive hERG inhibition control for each batch of cells.
The following criteria were used to determine data acceptability: 1) Initial seal resistance>1 GΩ; 2) Leak currents<50% of the control peak tail currents at any time; 3) Normal test pulse current waveform (e.g., hERG peak tail) current amplitude greater than prepulse current amplitude and the peak tail amplitude>250 pA; 4) Membrane resistance Rm>500 MΩ; 5) Access resistance (Ra)<15 MΩ; 6) Apparent run-down of peak current<2.5% per min. Percent current inhibition was calculated as (1−(Peak tail currentcompound−Peak tail currentpositive control)/(Peak tail currentBlank vehicle−Peak tail currentpositive control))×100. PatchMaster software was used to extract the peak current from the original data. The dose response curve of test compounds was plotted with % inhibition against the concentration of test compounds using Graphpad Prism 8.0, and the data fit to a sigmoid dose-response curve with a variable slope.

LAD-2 cells [1] = assay: LAD2 Degranulation Assay (Protocol 1), β-hexosaminidase release; details: Homo sapiens, 1 μM Cortistatin-14, 30 minute preincubation, top concentration 3 μM
Method: (§1) LAD-2 cells were maintained at 37° C. with 5% CO2 and grown in complete StemPro-34 media supplemented with 1% L-Glutamate, 1% penicillin/streptomycin, and 250 ng/mL human SCF.
On the day of experiment, cells were collected by centrifugation and seeded in 384-well assay plates, at 4,000 cells per well in 10 μl freshly made assay buffer (10 mM HEPES, 130 mM NaCl, 5 mM KCl, 1.8 mM CaCl2), 1.0 mM MgCl2, 5.6 mM glucose, 0.1% BSA, pH=7.40). For dose-response assays, compounds solubilized in 100% DMSO at 30 mM were serially diluted (1:3) first in 100% DMSO, and 2 intermediate dilutions with assay buffer were used to establish a final top concentration of 3 μM (in assay plate). Final DMSO concentration was kept constant at 0.1% across plates for all assays. Cortistatin-14 at 30 mM stock concentration was solubilized in HBSS+0.1% BSA, stored at −20° C. in 5 μl aliquots and discarded after one freeze-thaw cycle. Final concentration of agonist used in both dose-response and single point assays was 1 μM, prepared in assay buffer.
(§2) Antagonist equilibrium was established with 30 minute preincubation, followed by no wash, direct addition, and stimulation of agonist for 30 minutes at 37° C. For detection of β-hexosaminidase activity, assay plates were centrifuged and 5 μl of cell-free supernatant from each assay well was transferred to a black-walled black-bottomed 384-well plate. Substrate solution (1 mM 4-Methylumbelliferyl N-acetyl-β-D-glucosaminide in citrate buffer, pH=4.5, 15 μl) was added to each well and plates were incubated for 1 hour at 37° C. The plate was read on an EnVision XCite plate reader for umbelliferone fluorescence intensity (λex=355 nm, λem=460 nm). Background-subtracted data was analyzed using either GraphPad Prism or a custom Python script to calculate IC50 using either Log[Antagonist] vs. response (4 parameter) nonlinear regression (dose-response assays).

human MRGPRX2 = target: T2, human MRGPRX2 (Homo sapiens, UniProt Q96LB1); assay: MRGPRX2 Activity Assay (IP-1 HTRF, antagonist mode); details: FlpIn TRex-MRGPRX2-HEK293 cells; versus 1 μM Cortistatin-14 agonist; 30 minutes preincubation
T2 construct: expressed in transfected cells; host or cells: FlpIn TRex HEK293 (TRex-MRGPRX2-HEK), doxycycline-induced
T2 sequence (Q96LB1 1-330): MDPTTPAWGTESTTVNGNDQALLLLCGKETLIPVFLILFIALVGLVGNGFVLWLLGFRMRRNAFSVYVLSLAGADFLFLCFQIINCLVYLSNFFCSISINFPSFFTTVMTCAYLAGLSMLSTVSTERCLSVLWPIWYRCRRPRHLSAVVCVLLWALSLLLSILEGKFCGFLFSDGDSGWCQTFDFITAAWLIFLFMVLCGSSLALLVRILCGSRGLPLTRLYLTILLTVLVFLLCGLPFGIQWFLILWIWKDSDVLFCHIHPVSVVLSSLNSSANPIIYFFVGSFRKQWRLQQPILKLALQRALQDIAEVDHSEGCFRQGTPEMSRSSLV
How it was run: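 Doxycycline-induced (100 ng/mL, 18-24 h) TRex HEK293 cells stably expressing human MRGPRX2, in HBSS/20 mM HEPES/0.1% BSA/10 mM LiCl. Compounds (top final 30 uM, 1% DMSO) preincubated 30 min, then agonist stimulation 1 h at 37° C without wash. IP-1 accumulation read by HTRF; IC50 from 4-parameter fit.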

LAD-2 cells [2] = assay: LAD2 Degranulation Assay (Protocol 2), β-hexosaminidase release; details: Homo sapiens; for IC50: 0.5 μM Cortistatin-14, 2 h preincubation, cells without SCF 18-24 hours, top concentration 3 μM; for activity at 0.25 µM: single point 250 nM, 0.5 μM Cortistatin-14, % control β-hexosaminidase activity
Method: as §1
18-24 hours prior to experiment, LAD-2 cells were collected and transferred to growth media without SCF. On the day of experiment, cells were collected by centrifugation and seeded in 384-well assay plates, at 4,000 cells per well in 17 μl freshly made assay buffer (10 mM HEPES, 137 mM NaCl, 2.7 mM KCl, 1.8 mM CaCl2), 1.0 mM MgCl2, 5.6 mM glucose, 0.4 mM NaH2PO4, 0.04% BSA, pH=7.40). For dose-response assays, compounds solubilized in 100% DMSO at 30 mM were serially diluted (1:3) first in 100% DMSO, and 2 intermediate dilutions with assay buffer were used to establish a final top concentration of 3 μM (in assay plate). For single point assays, dilution of DMSO stocks to 250 nM (in assay plate) was performed in the same manner as described for dose-response assays. Final DMSO concentration was kept constant at 0.1% across plates for all assays. Cortistatin-14 at 30 mM stock concentration was solubilized in HBSS+0.1% BSA, stored at −20° C. in 5 μl aliquots and discarded after one freeze-thaw cycle. Final concentration of agonist used in both dose-response and single point assays was 0.5 μM, prepared in assay buffer.
as §2, with “with 2 h” for “with 30 minute”, “[…])” for “15 μl)”, “(dose-response assays) or % control β-hexosaminidase activity (single point” for “(dose-response”

T1 sequence (Q12809 whole entry): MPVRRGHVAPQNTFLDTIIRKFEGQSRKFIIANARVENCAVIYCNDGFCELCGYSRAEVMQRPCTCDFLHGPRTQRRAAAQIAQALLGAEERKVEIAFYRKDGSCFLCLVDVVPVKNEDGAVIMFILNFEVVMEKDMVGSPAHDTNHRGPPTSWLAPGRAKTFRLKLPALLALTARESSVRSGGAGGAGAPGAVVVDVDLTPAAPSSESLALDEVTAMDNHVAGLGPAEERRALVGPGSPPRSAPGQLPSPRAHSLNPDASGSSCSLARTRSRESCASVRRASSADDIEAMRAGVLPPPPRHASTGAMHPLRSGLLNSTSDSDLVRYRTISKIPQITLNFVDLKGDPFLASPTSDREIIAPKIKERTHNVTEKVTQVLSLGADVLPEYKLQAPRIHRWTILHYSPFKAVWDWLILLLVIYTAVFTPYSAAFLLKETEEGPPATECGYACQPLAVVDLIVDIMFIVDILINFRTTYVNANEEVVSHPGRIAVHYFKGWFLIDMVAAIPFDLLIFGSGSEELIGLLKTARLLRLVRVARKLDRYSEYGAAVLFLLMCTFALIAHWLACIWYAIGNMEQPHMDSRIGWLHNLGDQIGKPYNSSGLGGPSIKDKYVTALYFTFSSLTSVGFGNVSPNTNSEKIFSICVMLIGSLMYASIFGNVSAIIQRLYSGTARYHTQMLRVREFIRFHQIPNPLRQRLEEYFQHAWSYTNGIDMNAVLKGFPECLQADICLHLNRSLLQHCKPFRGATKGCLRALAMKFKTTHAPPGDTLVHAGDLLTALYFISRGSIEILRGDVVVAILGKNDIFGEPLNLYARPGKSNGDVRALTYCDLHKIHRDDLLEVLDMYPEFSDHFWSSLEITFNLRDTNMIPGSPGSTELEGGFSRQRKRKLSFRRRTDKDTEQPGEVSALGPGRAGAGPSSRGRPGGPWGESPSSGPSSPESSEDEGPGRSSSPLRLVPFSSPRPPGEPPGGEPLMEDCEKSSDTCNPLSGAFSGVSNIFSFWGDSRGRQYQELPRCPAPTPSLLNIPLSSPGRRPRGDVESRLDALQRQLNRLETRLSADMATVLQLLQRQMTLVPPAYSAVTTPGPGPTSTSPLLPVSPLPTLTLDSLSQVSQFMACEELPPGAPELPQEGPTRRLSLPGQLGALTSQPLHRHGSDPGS

Row | Structure (SMILES) | hERG Inhibition (%) @ 1 μM (hERG channel) | hERG Inhibition (%) @ 20 μM (hERG channel) | IC50 (LAD-2 cells [1]) | IC50 (human MRGPRX2) | IC50 (LAD-2 cells [2]) | activity at 0.25 µM (LAD-2 cells [2])
1 | C[C@H](C(=O)Nc1cn(Cc2cc(F)cc(F)c2)cn1)N1CCC(F)(F)[C@@H](c2cc[n+]([O-])cc2)C1 (single isomer, unassigned) [Compound 5] | 3% | 35% | 14 nM | 9 nM | – | –
2 | C[C@@H](C(=O)Nc1cn2c(n1)CC[C@H]2c1cc(F)cc(F)c1)N1CCC(F)(F)[C@@H](c2ccc(=O)[nH]c2)C1 (single isomer, unassigned) [Compound 494] | 9% | 54% | – | 20 nM | 6.9 nM | 13%
3 | C[C@@H](C(=O)Nc1cn(Cc2ccc(F)cc2F)cn1)N1CCC(F)(F)[C@@H](c2cc[n+]([O-])cc2)C1 (single isomer, unassigned) [Compound 1] | 10% | 35% | 1940 nM | 58 nM | – | –
4 | C[C@@H](C(=O)Nc1cn2c(n1)CC[C@@H]2c1cc(F)cc(F)c1)N1CCC(F)(F)[C@@H](c2cc[n+]([O-])cc2)C1 (single isomer, unassigned) [Compound 489] | 12% | 47% | – | 13 nM | 9.5 nM | 14%
5 | C[C@@H](C(=O)Nc1nc2cc3c(cc2s1)OCO3)N1CCC(F)(F)[C@@H](c2cc[n+]([O-])cc2)C1 (single isomer, unassigned) [Compound 11] | 11% | 62% | 12 nM | 3.7 nM | – | –
